Legend:
[1] = test system: passive cutaneous anaphylaxis (PCA) mediated by homocytotropic antibodies (HTA); experiment: antiallergic activity: passive cutaneous anaphylaxis (PCA) mediated by homocytotropic antibodies (HTA) in rats; assay type: in vivo, rat (Wister); conditions: Rattus norvegicus, given orally 30 minutes before antigen challenge, minimum dose that decreased statistically significantly the amount of leaked dye comparing with control, 72 hr. PCA, read-out: MED
Experimental: With respect to the 3-(1H-tetrazol-5-yl)-coumarin derivatives obtained in Examples 1 to 12, there was tested antiallergic activity concerning passive cutaneous anaphylaxis (PCA) mediated by homocytotropic antibodies (HTA) in rats.
2,4-Dinitrophenyl-coupled ascaris extract (DNP-As) used as antigen, was prepared according to the methods of Strejan et al [cf. J. Immunol., Vol. 98, 893(1967)] and Eisen [cf. J. Amer. Chem. Soc., Vol. 75, 4593(1953)]. Antisera containing HTA were prepared in rats according to the method of Tada and Okumura [cf, J. Immunol., Vol. 106, 1002(1971)] as follows:
Wister rats weighing 180 to 200 g. were splenectomized and several days later immunized by injecting into all four footpads a total of 1 mg. of DNP-As mixed with 10^10 Bordetella pertussis. After 5 days, 0.5 mg. of DNP-As alone was injected subcutaneously into the back of rats. Eight days after the first immunization, blood was collected by aortic puncture under ether anaesthesea and antisera obtained by these procedures were pooled and stored at -80° C.
The titer of the pooled autiserum was determined in rats by the 72 hr. PCA which method was described in the following item (ii), i.e. the highest dilution of antiserum producing a diameter of approximately 5 mm. was usually 1:500.
Normal wister rats weighing 140 to 160 g. were sensitized passively by injection intradermal on the shaved back skin 0.05 ml. of the diluted antisera (1:30). After 72 hours, the animals were injected intravenously 1 ml. of physiological salt solution containing 2 mg. DNP-As and 2.5 mg. Evans' blue.
The present compounds to be tested were given orally 30 minutes before antigen challenge. The animals were exsanguinated 30 minutes after challenge with the antigens and the skins were exfoliated. The intensities of PCA were evaluated by measuring the amount of leaked dye. The amount of dye leaked as a result of PCA was extracted according to the method of Harada et al [cf. Jpn.

acute toxicity in mice = conditions: mouse, in vivo, po, orally, suspended in 10% gum arabic solution, 6 days observation, method of Litchfield-Wilcoxon
Experimental: With respect to the 3-(1H-tetrazol-5-yl)-coumarin derivatives obtained in Examples 1 to 12, there was tested acute toxicity in mice.
After normal female Slc: ddy mice 4 weeks old were purchased and fed preliminarily in this lavoratory for a week, these mice weighing 25-27 g. were used in the test. The present compounds to be tested, were suspended in a 10% gum arabic solution and administered orally […]. body weight to mice. Each dose level was given to a group of ten animals and the survivors were kept under observation for 6 days. The numbers of dead animals were counted and the LD50 values in mg./kg. body weight were calculated by the method of Litchfield-Wilcoxon.

O=c1oc2c(OCCOc3ccccc3)cccc2cc1-c1nnn[nH]1 [Ex. 12, 8-(2-Phenoxyethyloxy)-3-(1H-tetrazol-5-yl)-coumarin]
minimal effective dose [1]: 1.56 mg/kg | LD50 at 144 h (acute toxicity in mice): > 2000 mg/kg

CC(C)OCCOc1cccc2cc(-c3nn[nH]n3)c(=O)oc12 [Ex. 5]
minimal effective dose [1]: 6.25 mg/kg | LD50 at 144 h (acute toxicity in mice): 1500 mg/kg

CCOCCOc1cccc2cc(-c3nnn[nH]3)c(=O)oc12 [Ex. 3, 8-(3-Oxapentyloxy)-3-(1H-tetrazol-5-yl)coumarin]
minimal effective dose [1]: 0.39 mg/kg | LD50 at 144 h (acute toxicity in mice): 1500 mg/kg

O=c1oc2c(OCCCO)cccc2cc1-c1nnn[nH]1 [Ex. 1, 8-(3-Hydroxypropoxy)-3-(1H-tetrazol-5-yl)coumarin]
LD50 at 144 h (acute toxicity in mice): > 2000 mg/kg

COCCOc1cccc2cc(-c3nnn[nH]3)c(=O)oc12 [Ex. 2, 8-(3-Oxabutoxy)-3-(1H-tetrazol-5-yl)coumarin]
minimal effective dose [1]: 1.56 mg/kg | LD50 at 144 h (acute toxicity in mice): 1500 to 2000 mg/kg

CCOCCOCCOc1cccc2cc(-c3nn[nH]n3)c(=O)oc12 [Ex. 11, 8-(3,6-Dioxaoctyloxy)-3-(1-H-tetrazol-5-yl)-coumarin]
minimal effective dose [1]: 1.56 mg/kg | LD50 at 144 h (acute toxicity in mice): > 2000 mg/kg

CCCOCCOc1cccc2cc(-c3nnn[nH]3)c(=O)oc12 [Ex. 4, 8-(3-Oxahexyloxy)-3-(1H-tetrazol-5-yl)coumarin]
minimal effective dose [1]: 1.56 mg/kg | LD50 at 144 h (acute toxicity in mice): 1500 to 2000 mg/kg

CCCCOCCOc1cccc2cc(-c3nnn[nH]3)c(=O)oc12 [Ex. 6, 8-(3-Oxaheptyloxy)-3(1H-tetrazol-5-yl)coumarin]
minimal effective dose [1]: 6.25 mg/kg | LD50 at 144 h (acute toxicity in mice): > 2000 mg/kg

C=CCOCCOc1cccc2cc(-c3nnn[nH]3)c(=O)oc12 [Ex. 10, 8-(3-Oxa-5-hexenyloxy)-3-(1H-tetrazol-5-yl)-coumarin]
minimal effective dose [1]: 6.25 mg/kg | LD50 at 144 h (acute toxicity in mice): 1500 to 2000 mg/kg

CC(C)COCCOc1cccc2cc(-c3nnn[nH]3)c(=O)oc12 [Ex. 7, 8-(5-Methyl-3-oxahexyloxy)-3-(1H-tetrazol-5-yl)coumarin]
minimal effective dose [1]: 6.25 mg/kg | LD50 at 144 h (acute toxicity in mice): > 2000 mg/kg

CCOCCCOc1cccc2cc(-c3nnn[nH]3)c(=O)oc12 [Ex. 8, 8-(4-Oxahexyloxy)-3-(1H-tetrazol-5-yl)coumarin]
minimal effective dose [1]: 6.25 mg/kg | LD50 at 144 h (acute toxicity in mice): > 2000 mg/kg

CCOCCCCOc1cccc2cc(-c3nnn[nH]3)c(=O)oc12 [Ex. 9, 8-(5-Oxaheptyloxy)-3-(1H-tetrazol-5-yl)coumarin]
minimal effective dose [1]: 0.39 mg/kg | LD50 at 144 h (acute toxicity in mice): > 2000 mg/kg

Reference: patent US4406908A, “Tetrazolylcoumarin derivatives and antiallergic compositions containing the same” (Kakenyaku Kako Co., Ltd., priority 1980, dated 1983)
